# Test results from patent US20050101595A1, “N-containing cycloalkyl-substituted amino-thiazole derivatives and pharmaceutical compositions for inhibiting cell proliferation and methods for their use” (PFIZER INC., priority 2003, published 2005).
# pIC50, pKi: −log10 of the molar value. Where a name gives a salt, the structure may show the parent alone. Read-outs that look alike come from different tables or passages of the source.
# How the values were obtained:
# CDK2/Cyclin A = CDK2/Cyclin A (Homo sapiens, UniProt P24941); assay: Inhibition of CDK2/Cyclin A Retinoblastoma Kinase Activity; type: biochemical; conditions: for CDK2 % Inhibition At 0.03 μM: Table 2; for pKi: apparent Ki, CDK2/proteolyzed cyclin A, Rb fragment substrate, 25 μM ATP
# Outline: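 Human CDK2, baculovirus/insect-cell expressed, complexed with proteolyzed cyclin A (10 nM or 19 nM CDK2) phosphorylates an Rb fragment with 25 μM [32P/33P]ATP at pH 7.4, 30° C, for 60 or 75 minutes under initial-rate conditions. Filter-captured radioactivity is read by phosphorimager; apparent Ki from competitive-inhibition fits.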
# [1] = target: human CDK4 and genetically truncated (1-264) cyclin D3 (Homo sapiens, UniProt P11802); assay: Inhibition of CDK4/Cyclin D Retinoblastoma Kinase Activity; type: biochemical; conditions: for pKi: apparent Ki, CDK4/truncated cyclin D3, Rb fragment substrate, 25 μM ATP
# Outline: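 Read-out: 32P/33P incorporation into Rb fragment (386-928) captured on nitrocellulose, phosphorimager. Enzyme 5 nM CDK4/cyclin D3(1-264) from insect cells; ATP 25 μM, pH 7.4, 30 °C, 20 min (60 min for tight binders). Ki from competitive fits.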
# HCT-116 cell line = assay: Inhibition of cell growth, tetrazolium salt (MTT) assay; type: cell-based; conditions: for HCT-116 % Inhibition at 0.25 μM: 0.25 μM compound; for pIC50: Homo sapiens, HCT-116, 120 h, MTT, three to five days, read-out: HCT-116 IC50
# Outline: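 Cells in McCoy's 5A medium were left 4 h, then given graded compound concentrations in 0.5% (v/v) DMSO and incubated three to five days at 37° C (5% CO2). MTT was added to 0.2 mg/mL for 4 h more; DMSO-solubilized formazan was read at 540 nm against 0.5% DMSO-only controls.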
# [2] = 0.1 μM compound, HCT-116, Table 3
# [3] = 0.1 μM compound, HCT-116, Table 4
# Chain of human CDK4 and genetically truncated (1-264) cyclin D3 (P11802 whole entry, the tested form may be a part): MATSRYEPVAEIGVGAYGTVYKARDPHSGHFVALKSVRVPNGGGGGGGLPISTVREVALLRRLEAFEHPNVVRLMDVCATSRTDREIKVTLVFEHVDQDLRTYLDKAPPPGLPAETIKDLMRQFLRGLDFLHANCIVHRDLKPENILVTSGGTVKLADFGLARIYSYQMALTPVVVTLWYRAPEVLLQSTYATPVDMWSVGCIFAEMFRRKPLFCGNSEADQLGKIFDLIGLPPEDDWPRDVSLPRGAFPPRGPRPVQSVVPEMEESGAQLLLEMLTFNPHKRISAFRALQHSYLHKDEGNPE
# Chain of human CDK4 and genetically truncated (1-264) cyclin D3 (P30281 1-264 partner): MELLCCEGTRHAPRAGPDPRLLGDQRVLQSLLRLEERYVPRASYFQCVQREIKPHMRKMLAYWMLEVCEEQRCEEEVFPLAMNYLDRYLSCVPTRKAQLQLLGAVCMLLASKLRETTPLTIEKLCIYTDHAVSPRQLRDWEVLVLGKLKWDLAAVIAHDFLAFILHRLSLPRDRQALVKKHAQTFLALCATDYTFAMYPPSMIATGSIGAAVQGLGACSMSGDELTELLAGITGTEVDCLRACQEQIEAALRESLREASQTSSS
smiles,measurement,setting,value
Cc1cc(C(=O)N2CCC(Nc3nc(N)c(C(=O)c4c(F)cccc4F)s3)CC2)n(C(C)(C)C)n1 [Example R59],CDK2 % Inhibition at 0.03 μM,CDK2/Cyclin A; at 0.03 μM,16%
same,CDK4 % Inhibition at 0.03 μM,[1]; at 0.03 μM,25%
same,HCT-116 % Inhibition at 0.1 μM,"HCT-116 cell line; HCT-116 cells, at 0.1 μM",4%
same,HCT-116 5 Inhibition at 0.25 μM,HCT-116 cell line; HCT-116 cells,47
Cc1cccc(C(=O)N2CCC(Nc3nc(N)c(C(=O)c4c(F)cccc4F)s3)CC2)c1C [Example R125],CDK2 % Inhibition at 0.03 μM,CDK2/Cyclin A; at 0.03 μM,18%
same,CDK4 % Inhibition at 0.03 μM,[1]; at 0.03 μM,33%
same,HCT-116 % Inhibition at 0.1 μM,"HCT-116 cell line; HCT-116 cells, at 0.1 μM",0%
same,HCT-116 5 Inhibition at 0.25 μM,HCT-116 cell line; HCT-116 cells,42
COc1ccc(NC(=O)N2CCC(Nc3nc(N)c(C(=O)c4c(F)cccc4F)s3)CC2)c(OC)c1 [Example O8],CDK2 % Inhibition At 0.03 μM,CDK2/Cyclin A; 0.03 μM compound,37%
same,CDK4 % Inhibition at 0.03 μM,"[1]; 0.03 μM compound, Table 2",15%
same,HCT-116 % Inhibition at 0.25 μM,"HCT-116 cell line; HCT-116, Table 2",0%
COC(=O)CC(=O)N1CCC(Nc2nc(N)c(C(=O)c3c(F)cccc3F)s2)CC1 [Example R2],CDK2 % Inhibition at 0.03 μM,CDK2/Cyclin A; at 0.03 μM,−24%
same,CDK4 % Inhibition at 0.03 μM,[1]; at 0.03 μM,13%
same,HCT-116 % Inhibition at 0.1 μM,"HCT-116 cell line; HCT-116 cells, at 0.1 μM",1%
same,HCT-116 5 Inhibition at 0.25 μM,HCT-116 cell line; HCT-116 cells,49
Nc1nc(NC2CCN(S(=O)(=O)c3cccs3)CC2)sc1C(=O)c1c(F)cccc1F [Example P5],CDK2 % Inhibition at 0.03 μM,"CDK2/Cyclin A; 0.03 μM compound, Table 3",64%
same,CDK4 % Inhibition at 0.03 μM,"[1]; 0.03 μM compound, Table 3",70%
same,HCT-116 % Inhibition at 0.1 μM,HCT-116 cell line; [2],27%
same,HCT-116 % Inhibition at 0.25 μM,"HCT-116 cell line; HCT-116, Table 3",32%
Nc1nc(NC2CCN(C(=O)c3ccc(I)cc3)CC2)sc1C(=O)c1c(F)cccc1F [Example Q53],CDK2 % Inhibition at 0.03 μM,"CDK2/Cyclin A; 0.03 μM compound, Table 4",60%
same,CDK4 % Inhibition at 0.03 μM,"[1]; 0.03 μM compound, Table 4",83%
same,HCT-116 % Inhibition at 0.1 μM,HCT-116 cell line; [3],0%
same,HCT-116 % Inhibition at 0.25 μM,"HCT-116 cell line; HCT-116, Table 4",22%
"Nc1nc(NC2CCN(S(=O)(=O)c3ccc(SCCc4ccccn4)nc3)CC2)sc1C(=O)c1c(F)cccc1F [Example L3, 1-(4-Amino-2-{1-[6-(2-pyridin-2-yl-ethylsulfanyl)-pyridine-3-sulfonyl]-piperidin-4-ylamino}-thiazol-5-yl)-1-(2,6-difluoro-phenyl)-methanone Hydrochloride.]",pKi,CDK2/Cyclin A,9.17
same,pKi,[1],8.92
same,pIC50,HCT-116 cell line; first HCT-116 column (c4),6.46
same,pIC50,HCT-116 cell line; second HCT-116 column (c5),< 6.30
Nc1nc(NC2CCN(C(=O)Cc3ccccc3)CC2)sc1C(=O)c1c(F)cccc1F [Example Q43],CDK2 % Inhibition at 0.03 μM,"CDK2/Cyclin A; 0.03 μM compound, Table 4",16%
same,CDK4 % Inhibition at 0.03 μM,"[1]; 0.03 μM compound, Table 4",30%
same,HCT-116 % Inhibition at 0.1 μM,HCT-116 cell line; [3],0%
same,HCT-116 % Inhibition at 0.25 μM,"HCT-116 cell line; HCT-116, Table 4",24%
COC(=O)[C@@H](NC(=O)N1CCC(Nc2nc(N)c(C(=O)c3c(F)cccc3F)s2)CC1)C(C)C [Example O76],CDK2 % Inhibition At 0.03 μM,CDK2/Cyclin A; 0.03 μM compound,22%
same,CDK4 % Inhibition at 0.03 μM,"[1]; 0.03 μM compound, Table 2",5%
same,HCT-116 % Inhibition at 0.25 μM,"HCT-116 cell line; HCT-116, Table 2",49%
"Nc1nc(NC2CCN(S(=O)(=O)CCSC3CCCC3)CC2)sc1C(=O)c1c(F)cccc1F [Example K38, {4-Amino-2-[1-(2-cyclopentylsulfanyl-ethanesulfonyl)-piperidin-4-ylamino]-thiazol-5-yl}-(2,6-difluoro-phenyl)-methanone Trifluoroacetic Acid Salt.]",pKi,CDK2/Cyclin A,8.10
same,pKi,[1],8.19
same,pIC50,HCT-116 cell line; first HCT-116 column (c4),6.34
same,pIC50,HCT-116 cell line; second HCT-116 column (c5),5.52
CC(=O)OC(C(=O)N1CCC(Nc2nc(N)c(C(=O)c3c(F)cccc3F)s2)CC1)c1ccccc1 (centres unmarked) [Example Q40],CDK2 % Inhibition at 0.03 μM,"CDK2/Cyclin A; 0.03 μM compound, Table 4",−5%
same,CDK4 % Inhibition at 0.03 μM,"[1]; 0.03 μM compound, Table 4",7%
same,HCT-116 % Inhibition at 0.1 μM,HCT-116 cell line; [3],0%
same,HCT-116 % Inhibition at 0.25 μM,"HCT-116 cell line; HCT-116, Table 4",20%
Nc1nc(NC2CCN(C(=O)c3cc(Cl)ccc3Cl)CC2)sc1C(=O)c1c(F)cccc1F [Example R108],CDK2 % Inhibition at 0.03 μM,CDK2/Cyclin A; at 0.03 μM,56%
same,CDK4 % Inhibition at 0.03 μM,[1]; at 0.03 μM,72%
same,HCT-116 % Inhibition at 0.1 μM,"HCT-116 cell line; HCT-116 cells, at 0.1 μM",5%
same,HCT-116 5 Inhibition at 0.25 μM,HCT-116 cell line; HCT-116 cells,58
Nc1nc(NC2CCN(C(=O)Nc3cc(Cl)nc(Cl)c3)CC2)sc1C(=O)c1c(F)cccc1F [Example O64],CDK2 % Inhibition At 0.03 μM,CDK2/Cyclin A; 0.03 μM compound,32%
same,CDK4 % Inhibition at 0.03 μM,"[1]; 0.03 μM compound, Table 2",7%
same,HCT-116 % Inhibition at 0.25 μM,"HCT-116 cell line; HCT-116, Table 2",37%
Nc1nc(NC2CCN(C(=O)c3ccc(Cl)nc3)CC2)sc1C(=O)c1c(F)cccc1F [Example R20],CDK2 % Inhibition at 0.03 μM,CDK2/Cyclin A; at 0.03 μM,59%
same,CDK4 % Inhibition at 0.03 μM,[1]; at 0.03 μM,85%
same,HCT-116 % Inhibition at 0.1 μM,"HCT-116 cell line; HCT-116 cells, at 0.1 μM",0%
same,HCT-116 5 Inhibition at 0.25 μM,HCT-116 cell line; HCT-116 cells,42
Nc1nc(NC2CCN(C(=O)Nc3cccc4ccccc34)CC2)sc1C(=O)c1c(F)cccc1F [Example O35],CDK2 % Inhibition At 0.03 μM,CDK2/Cyclin A; 0.03 μM compound,29%
same,CDK4 % Inhibition at 0.03 μM,"[1]; 0.03 μM compound, Table 2",5%
same,HCT-116 % Inhibition at 0.25 μM,"HCT-116 cell line; HCT-116, Table 2",0%
"CN(CCS(=O)(=O)N1CCC(Nc2nc(N)c(C(=O)c3c(F)cccc3F)s2)CC1)Cc1ccccc1 [Example K39, (4-Amino-2-{1-[2-(benzyl-methyl-amino)-ethanesulfonyl]-piperidin-4-ylamino}-thiazol-5-yl)-(2,6-difluoro-phenyl)-methanone]",pKi,CDK2/Cyclin A,8.85
same,pKi,[1],8.74
same,pIC50,HCT-116 cell line; first HCT-116 column (c4),7.36
same,pIC50,HCT-116 cell line; second HCT-116 column (c5),6.77
"Nc1nc(NC2CCN(S(=O)(=O)c3ccc(CCN4CCCC4)nc3)CC2)sc1C(=O)c1c(F)cccc1F [Example N2, (4-Amino-2-{1-[6-(2-pyrrolidin-1-yl-ethyl)-pyridine-3-sulfonyl]-piperidin-4-ylamino}-thiazol-5-yl)-(2,6-difluoro-phenyl)-methanone Hydrochloride Salt.]",pKi,CDK2/Cyclin A,8.92
same,pKi,[1],9.31
same,pIC50,HCT-116 cell line; first HCT-116 column (c4),6.64
same,pIC50,HCT-116 cell line; second HCT-116 column (c5),< 6.30
CCC(Oc1ccccc1)C(=O)N1CCC(Nc2nc(N)c(C(=O)c3c(F)cccc3F)s2)CC1 (centres unmarked) [Example R162],CDK2 % Inhibition at 0.03 μM,CDK2/Cyclin A; at 0.03 μM,27%
same,CDK4 % Inhibition at 0.03 μM,[1]; at 0.03 μM,32%
same,HCT-116 % Inhibition at 0.1 μM,"HCT-116 cell line; HCT-116 cells, at 0.1 μM",0%
same,HCT-116 5 Inhibition at 0.25 μM,HCT-116 cell line; HCT-116 cells,34
"Nc1nc(NC2CCN(S(=O)(=O)c3ccc(Br)s3)CC2)sc1C(=O)c1c(F)cccc1F [Example F50, 1-{4-Amino-2-[1-(5-bromo-thiophene-2-sulfonyl)-piperidin4-ylamino]-thiazol-5-yl}1-(2,6-difluoro-phenyl)-methanone]",pKi,CDK2/Cyclin A,8.96
same,pKi,[1],8.49
same,pIC50,HCT-116 cell line; first HCT-116 column (c4),6.55
same,pIC50,HCT-116 cell line; second HCT-116 column (c5),5.59
CC(=O)c1ccc(NC(=O)N2CCC(Nc3nc(N)c(C(=O)c4c(F)cccc4F)s3)CC2)cc1 [Example O53],CDK2 % Inhibition At 0.03 μM,CDK2/Cyclin A; 0.03 μM compound,30%
same,CDK4 % Inhibition at 0.03 μM,"[1]; 0.03 μM compound, Table 2",11%
same,HCT-116 % Inhibition at 0.25 μM,"HCT-116 cell line; HCT-116, Table 2",41%
Cc1ccc(S(=O)(=O)N2CCC(Nc3nc(N)c(C(=O)c4c(F)cccc4F)s3)CC2)cc1 [Example P23],CDK2 % Inhibition at 0.03 μM,"CDK2/Cyclin A; 0.03 μM compound, Table 3",64%
same,CDK4 % Inhibition at 0.03 μM,"[1]; 0.03 μM compound, Table 3",67%
same,HCT-116 % Inhibition at 0.1 μM,HCT-116 cell line; [2],19%
same,HCT-116 % Inhibition at 0.25 μM,"HCT-116 cell line; HCT-116, Table 3",32%
"Cn1cncc1C(=O)N1CCC(Nc2nc(N)c(C(=O)c3c(F)cccc3F)s2)CC1 [Example C15, 1-(4-Amino-2-{1-[1-(3-methyl-3H-imidazol-4-yl)-methanoyl]-piperidin-4-ylamino}-thiazol-5-y)-1-(2,6-difluoro-phenyl)-methanone]",pKi,CDK2/Cyclin A,6.82
same,pKi,[1],7.29
same,pIC50,HCT-116 cell line; first HCT-116 column (c4),< 5.30
same,pIC50,HCT-116 cell line; second HCT-116 column (c5),< 5.30
Nc1nc(NC2CCN(C(=O)c3sccc3Cl)CC2)sc1C(=O)c1c(F)cccc1F [Example R51],CDK2 % Inhibition at 0.03 μM,CDK2/Cyclin A; at 0.03 μM,62%
same,CDK4 % Inhibition at 0.03 μM,[1]; at 0.03 μM,48%
same,HCT-116 % Inhibition at 0.1 μM,"HCT-116 cell line; HCT-116 cells, at 0.1 μM",0%
same,HCT-116 5 Inhibition at 0.25 μM,HCT-116 cell line; HCT-116 cells,37
"CC1=NC(C)CN1c1ccc(S(=O)(=O)N2CCC(Nc3nc(N)c(C(=O)c4c(F)cccc4F)s3)CC2)cn1 (centres unmarked) [Example G23, 1-(4-Amino-2-{1-[6-(2,4-dimethyl-4,5-dihydro-imidazol-1-yl)-pyridin-3-sulfonyl]-piperidin-4-ylamino}-thiazol-5-yl)-1-(2,6-difluoro-phenyl)-methanone Hydrochloride]",pKi,CDK2/Cyclin A,> 9.00
same,pKi,[1],9.36
same,pIC50,HCT-116 cell line; first HCT-116 column (c4),6.12
same,pIC50,HCT-116 cell line; second HCT-116 column (c5),5.30
Nc1nc(NC2CCN(S(=O)(=O)CCCn3ccnc3)CC2)sc1C(=O)c1c(F)cccc1F [Example K2],pKi,CDK2/Cyclin A,8.20
same,pKi,[1],8.33
same,pIC50,HCT-116 cell line; first HCT-116 column (c4),5.64
same,pIC50,HCT-116 cell line; second HCT-116 column (c5),< 5.30
